How the values were obtained:
SW620 cells = assay: Cell cycle analysis (PI, flow cytometry); format: cell-based, human; details: SW620, treated with IC50 value, 48 h
Procedure: (§1) The method used for the recognition of cell cycle phases (G0/G1, S, G2/M) was based on staining with a fluorescent dye (propidium iodide—PI), as a direct relationship between fluorescence intensity and DNA content can be established. For this method, 250,000 cells/well were initially seeded in 6-well culture plates with an adherence period of 24 h at 37 °C in a 5% CO2 atmosphere. […] After treatment, cells were obtained by mechanical disaggregation, and the cell pellet was centrifuged and washed with a versene buffer. The cell pellet was fixed with 1.8 mL of cold 70% ethanol and kept at 4 °C overnight. Subsequently, two washes with a versene buffer were performed, and the pellet was resuspended in 300 µL of PBS containing 0.25 mg/mL of RNAsa and 0.1 mg/mL of PI. After a 30 min period of dark incubation, the fluorescence of 10,000 cells was analyzed using a FACS Canto II flow cytometer. The PI signal was analyzed with excitation at 488 nm using a sapphire laser, and fluorescence was detected at 610 nm. The data analysis was performed with FlowJo 10.8.1 software.

SW480 cells [1] = assay: Cell cycle analysis (PI, flow cytometry); format: cell-based, human; details: SW480, treated with IC50 value, 48 h
Procedure: as §1

SW480 cells [2] = assay: Cell viability, sulforhodamine B (SRB) assay; format: cell-based; details: Homo sapiens
Procedure: SW480 (colon adenocarcinoma) and SW620 (derived metastatic) malignant cell lines, and the non-malignant lines HaCaT (human keratinocytes) and CHO-K1 (Chinese Hamster Ovary), were obtained from the European Collection of Authenticated Cell Cultures (ECACC, Porton Down, Salisbury, UK). The cells were maintained in Dulbecco’s Modified Eagle’s Medium (DMEM), supplemented with 10% equine serum previously inactivated at 56 °C, 1% penicillin/streptomycin, and 1% non-essential amino acids, and incubated at 37 °C in an atmosphere with 5% CO2. To carry out the experiments, the serum was diluted to 3% and additionally supplemented with […] insulin, […] transferrin, and 5 ng/mL selenium. Cells were used for experimentation when they reached 80–90% confluence, using a 1X trypsin enzymatic disintegration method. To avoid contamination by Mycoplasma spp., cell cultures were periodically analyzed by polymerase chain reaction (PCR).
Cell viability was evaluated with a sulforhodamine B (SRB) assay. This technique provides an index of protein contents in living and adherent cells, whose optical density can be related to cell concentration. Initially, 20,000 cells were seeded per well in 96-well culture plates. An initial adherence period of 24 h was performed at 37 °C, 5% CO2, and after this, the medium was replaced by another that contained the hybrid compounds in different concentrations. Then, the cells were left incubating for 24 and 48 h under the same conditions previously described. After the respective incubation times, the cells were fixed with trichloroacetic acid (50% v/v) for 1 h at 4 °C and stained with 0.4% (p/v) of SRB. Subsequently, washings with 1% acetic acid were carried out to eliminate possible nonspecific bindings, and after solubilization with 10 mM Tris-base, the absorbance was read at 492 nm in a microplate reader (Mindray MR-96A). All the experiments were carried out in triplicate.

- IC50 (SW480 cells [2]; SW480, 24 h): 15.7 ± 1.91 µM
- IC50 (SW480 cells [2]; SW480, 48 h): 2.43 ± 0.33 µM
Structure (SMILES): COc1cc(/C=C/C(=O)c2ccc(OCCCCCn3cc(Cn4cc(F)c(=O)[nH]c4=O)nn3)cc2)ccc1O [Compound 6d, (E)-5-fluoro-1-((1-(5-(4-(3-(4-hydroxy-3-methoxyphenyl)acryloyl)phenoxy)pentyl)-1H-1,2,3-triazol-4-yl)methyl)pyrimidine-2,4(1H,3H)-dione]
- Cell cycle distribution, G0/G1 (SW620 cells): 4.4%
- Cell cycle distribution, G2/M (SW620 cells): 11.0%
- Cell cycle distribution, S Phase (SW620 cells): 24.7%
- Cell cycle distribution, G0/G1 (SW480 cells [1]): 42.9%
- Cell cycle distribution, G2/M (SW480 cells [1]): 10.1%
- Cell cycle distribution, S Phase (SW480 cells [1]): 20.0%
- Cell cycle distribution, Sub G0/G1 (SW480 cells [1]): 24.1%

From paper PMC10144058, “New Hybrid Scaffolds Based on 5-FU/Curcumin: Synthesis, Cytotoxic, Antiproliferative and Pro-Apoptotic Effect” (Pharmaceutics, 2023)
